Data published in patent US11530221B2, “Pyrimido[4,5-d]pyrimidin-2-one derivatives as protein kinase inhibitors” (KOREA INSTITUTE OF SCIENCE AND TECHNOLOGY, priority 2019, dated 2022).
Read-outs that look alike come from different tables or passages of the source. Square brackets hold non-standard residues; d marks the D form. Peptide text beside a SMILES is read from it. * marks the point of attachment. X1 = Cc1ccc(Nc2ncc3c(n2)N(C)C(=O)N(c2cc(C(=O)*)ccc2C)C3)cn1; Pip = O=C(O)[C@@H]1CCCCN1; Ac4c = NC1(C(=O)O)CCC1; Ac3c = NC1(C(=O)O)CC1; Aib = CC(C)(N)C(=O)O

Tests used:
c-Src = c-Src (Homo sapiens, UniProt P12931); test: IC50 inhibitory activity against c-Src kinase; assay type: biochemical
Description: (§1) IC50 values were calculated by measuring the inhibitory activity against LCK, c-Src, p38a/MAPK14, ABL1, DDR1 and FGR kinases of the compounds of the present invention.

LCK = LCK (Homo sapiens, UniProt P06239); test: IC50 inhibitory activity against LCK kinase; assay type: biochemical
Description: as §1

Chain of c-Src (P12931 whole entry): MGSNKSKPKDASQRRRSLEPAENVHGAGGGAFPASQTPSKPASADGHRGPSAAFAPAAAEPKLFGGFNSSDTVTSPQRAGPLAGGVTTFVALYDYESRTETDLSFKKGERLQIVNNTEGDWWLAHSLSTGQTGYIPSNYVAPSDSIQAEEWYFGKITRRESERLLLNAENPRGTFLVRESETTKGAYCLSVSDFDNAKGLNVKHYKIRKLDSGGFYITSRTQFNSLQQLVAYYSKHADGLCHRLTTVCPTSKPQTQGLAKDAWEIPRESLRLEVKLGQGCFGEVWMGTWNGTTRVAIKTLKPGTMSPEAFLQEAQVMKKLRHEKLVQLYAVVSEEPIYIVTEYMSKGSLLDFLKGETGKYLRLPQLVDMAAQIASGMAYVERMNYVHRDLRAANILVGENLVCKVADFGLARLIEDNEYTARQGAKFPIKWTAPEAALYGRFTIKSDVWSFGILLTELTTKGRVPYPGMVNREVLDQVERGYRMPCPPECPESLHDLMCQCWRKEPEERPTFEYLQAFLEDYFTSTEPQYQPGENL
Chain of LCK (P06239 whole entry): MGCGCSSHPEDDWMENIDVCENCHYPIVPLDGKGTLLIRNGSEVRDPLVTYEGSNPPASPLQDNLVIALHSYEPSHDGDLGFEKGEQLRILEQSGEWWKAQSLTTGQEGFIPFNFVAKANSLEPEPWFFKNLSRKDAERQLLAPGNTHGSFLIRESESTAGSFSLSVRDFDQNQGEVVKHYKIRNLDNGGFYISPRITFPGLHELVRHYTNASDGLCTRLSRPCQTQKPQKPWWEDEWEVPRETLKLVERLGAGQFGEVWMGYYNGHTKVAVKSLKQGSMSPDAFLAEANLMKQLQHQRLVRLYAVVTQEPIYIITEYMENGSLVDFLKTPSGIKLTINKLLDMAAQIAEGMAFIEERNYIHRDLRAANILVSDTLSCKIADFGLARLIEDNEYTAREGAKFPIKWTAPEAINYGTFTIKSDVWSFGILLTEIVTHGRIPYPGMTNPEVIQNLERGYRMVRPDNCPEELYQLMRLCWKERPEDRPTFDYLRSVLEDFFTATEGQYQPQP

| SMILES | IC50 (c-Src) [nM] | IC50 (LCK) [nM] | IC50 (c-Src; read-out: c-Src IC50) [nM] | IC50 (LCK; read-out: LCK IC50) [nM] |
| --- | --- | --- | --- | --- |
| Cc1ccc(Nc2ncc3c(n2)N(C)C(=O)N(c2cc(C(=O)N[C@H](C(=O)N4CCC[C@@H]4C(=O)NC4(C(=O)N[C@@H](CC(C)C)C(=O)N(C)C)CC4)C(C)C)ccc2C)C3)cn1 [Example 3, (R)—N-(1-(((S)-1-(dimethylamino)-4-methyl-1-oxopentan-2-yl)carbamoyl)cyclopropyl)-1-((4-methyl-3-(1-methyl-7-((6-methylpyridin-3-yl)amino)-2-oxo-1,4-dihydropyrimido[4,5-d]pyrimidin-3(2H)-yl)benzoyl)-L-valyl)pyrrolidine-2-carboxamide] (X1-V[dP][Ac3c]L-NMe2) | > 600 | 1 to 200 |  |  |
| Cc1ccc(Nc2ncc3c(n2)N(C)C(=O)N(c2cc(C(=O)N[C@H](C(=O)N4CCC[C@H]4C(=O)NC4(C(=O)N[C@@H](CC(C)C)C(=O)N(C)C)CC4)C(C)C)ccc2C)C3)cn1 [Example 4, (S)—N-(1-(((S)-1-(dimethylamino)-4-methyl-1-oxopentan-2-yl)carbamoyl)cyclopropyl)-1-((4-methyl-3-(1-methyl-7-((6-methylpyridin-3-yl)amino)-2-oxo-1,4-dihydropyrimido[4,5-d]pyrimidin-3(2H)-yl)benzoyl)-L-valyl)pyrrolidine-2-carboxamide] (X1-VP[Ac3c]L-NMe2) | 200 to 400 | 1 to 200 |  |  |
| Cc1ccc(Nc2ncc3c(n2)N(C)C(=O)N(c2cc(C(=O)N[C@H](C(=O)N4CCC[C@@H]4C(=O)NCC(=O)N[C@@H](CC(C)C)C(=O)N(C)C)C(C)C)ccc2C)C3)cn1 [Example 5, (R)—N-(2-(((S)-1-(dimethylamino)-4-methyl-1-oxopentan-2-yl)amino)-2-oxoethyl)-1-((4-methyl-3-(1-methyl-7-((6-methylpyridin-3-yl)amino)-2-oxo-1,4-dihydropyrimido[4,5-d]pyrimidin-3(2H)-yl)benzoyl)-L-valyl)pyrrolidine-2-carboxamide] (X1-V[dP]GL-NMe2) | > 600 | 1 to 200 |  |  |
| Cc1ccc(Nc2ncc3c(n2)N(C)C(=O)N(c2cc(C(=O)N[C@H](C(=O)N4CCC[C@H]4C(=O)NCC(=O)N[C@@H](CC(C)C)C(=O)N(C)C)C(C)C)ccc2C)C3)cn1 [Example 6, (S)—N-(2-(((S)-1-(dimethylamino)-4-methyl-1-oxopentan-2-yl)amino)-2-oxoethyl)-1-((4-methyl-3-(1-methyl-7-((6-methylpyridin-3-yl)amino)-2-oxo-1,4-dihydropyrimido[4,5-d]pyrimidin-3(2H)-yl)benzoyl)-L-valyl)pyrrolidine-2-carboxamide] (X1-VPGL-NMe2) | > 600 | 1 to 200 |  |  |
| Cc1ccc(Nc2ncc3c(n2)N(C)C(=O)N(c2cc(C(=O)N[C@@H](Cc4ccccc4)C(=O)N4CCC[C@@H]4C(=O)N[C@H](C(=O)N[C@H](C)c4ccccc4)C(C)C)ccc2C)C3)cn1 [Example 7, (R)—N—((S)-3-methyl-1-oxo-1-(((R)-1-phenylethyl)amino)butan-2-yl)-1-((4-methyl-3-(1-methyl-7-((6-methylpyridin-3-yl)amino)-2-oxo-1,4-dihydropyrimido[4,5-d]pyrimidin-3(2H)-yl)benzoyl)-L-phenylalanyl)pyrrolidine-2-carboxamide] |  |  | 400 to 600 | 1 to 200 |
| Cc1ccc(Nc2ncc3c(n2)N(C)C(=O)N(c2cc(C(=O)N[C@H](C(=O)N4CCC[C@@H]4C(=O)N[C@H](C(=O)N[C@H](C)c4ccccc4)C(C)C)C(C)C)ccc2C)C3)cn1 [Example 8, (R)—N—((S)-3-methyl-1-oxo-1-(((R)-1-phenylethyl)amino)butan-2-yl)-1-((4-methyl-3-(1-methyl-7-((6-methylpyridin-3-yl)amino)-2-oxo-1,4-dihydropyrimido[4,5-d]pyrimidin-3(2H)-yl)benzoyl)-L-valyl)pyrrolidine-2-carboxamide] |  |  | > 600 | 400 to 600 |
| Cc1ccc(Nc2ncc3c(n2)N(C)C(=O)N(c2cc(C(=O)N[C@H](C(=O)N4CCC[C@H]4C(=O)N[C@H](C(=O)N[C@H](C)c4ccccc4)C(C)C)C(C)C)ccc2C)C3)cn1 [Example 9, (S)—N—((S)-3-methyl-1-oxo-1-(((R)-1-phenylethyl)amino)butan-2-yl)-1-((4-methyl-3-(1-methyl-7-((6-methylpyridin-3-yl)amino)-2-oxo-1,4-dihydropyrimido[4,5-d]pyrimidin-3(2H)-yl)benzoyl)-L-valyl)pyrrolidine-2-carboxamide] |  |  | > 600 | 1 to 200 |
| Cc1ccc(Nc2ncc3c(n2)N(C)C(=O)N(c2cc(C(=O)N[C@@H](C(=O)N4CCC[C@@H]4C(=O)NC(C)(C)C(=O)N[C@H](CC(C)C)C(=O)N(C)C)C(C)C)ccc2C)C3)cn1 [Example 10, (R)—N-(1-(((R)-1-(dimethylamino)-4-methyl-1-oxopentan-2-yl)amino)-2-methyl-1-oxopropan-2-yl)-1-((4-methyl-3-(1-methyl-7-((6-methylpyridin-3-yl)amino)-2-oxo-1,4-dihydropyrimido[4,5-d]pyrimidin-3(2H)-yl)benzoyl)-D-valyl)pyrrolidine-2-carboxamide] (X1-[dV][dP][Aib][dL]-NMe2) | > 600 | 200 to 400 |  |  |
| Cc1ccc(Nc2ncc3c(n2)N(C)C(=O)N(c2cc(C(=O)N[C@H](C(=O)N4CCC[C@H]4C(=O)N[C@@H](Cc4ccccc4)C(=O)N[C@@H](CC(C)C)C(=O)N(C)C)C(C)C)ccc2C)C3)cn1 [Example 11] (X1-VPFL-NMe2) |  |  | 1 to 200 | 1 to 200 |
| Cc1ccc(Nc2ncc3c(n2)N(C)C(=O)N(c2cc(C(=O)N[C@H](C(=O)N4CCC[C@H]4C(=O)NC4(C(=O)N[C@@H](CC(C)C)C(=O)N(C)C)CCC4)C(C)C)ccc2C)C3)cn1 [Example 12, (S)—N-(1-(((S)-1-(dimethylamino)-4-methyl-1-oxopentan-2-yl)carbamoyl)cyclobutyl)-1-((4-methyl-3-(1-methyl-7-((6-methylpyridin-3-yl)amino)-2-oxo-1,4-dihydropyrimido[4,5-d]pyrimidin-3(2H)-yl)benzoyl)-L-valyl)pyrrolidine-2-carboxamide] (X1-VP[Ac4c]L-NMe2) | > 600 | 1 to 200 |  |  |
| Cc1ccc(Nc2ncc3c(n2)N(C)C(=O)N(c2cc(C(=O)N[C@H](C(=O)N4CCCC[C@H]4C(=O)NC(C)(C)C(=O)N[C@@H](CC(C)C)C(=O)N(C)C)C(C)C)ccc2C)C3)cn1 [Example 13, (S)—N-(1-(((S)-1-(dimethylamino)-4-methyl-1-oxopentan-2-yl)amino)-2-methyl-1-oxopropan-2-yl)-1-((4-methyl-3-(1-methyl-7-((6-methylpyridin-3-yl)amino)-2-oxo-1,4-dihydropyrimido[4,5-d]pyrimidin-3(2H)-yl)benzoyl)-L-valyl)piperidine-2-carboxamide] (X1-V[Pip][Aib]L-NMe2) |  |  | 400 to 600 | 1 to 200 |
| Cc1ccc(Nc2ncc3c(n2)N(C)C(=O)N(c2cc(C(=O)N[C@H](C(=O)N4CCC[C@H]4C(=O)NC(C)(C)C(=O)NCC(=O)N(C)C)C(C)C)ccc2C)C3)cn1 [Example 14, (S)—N-(1-((2-(dimethylamino)-2-oxoethyl)amino)-2-methyl-1-oxopropan-2-yl)-1-((4-methyl-3-(1-methyl-7-((6-methylpyridin-3-yl)amino)-2-oxo-1,4-dihydropyrimido[4,5-d]pyrimidin-3(2H)-yl)benzoyl)-L-valyl)pyrrolidine-2-carboxamide] (X1-VP[Aib]G-NMe2) | > 600 | 1 to 200 |  |  |
| Cc1ccc(Nc2ncc3c(n2)N(C)C(=O)N(c2cc(C(=O)N[C@H](C(=O)N4CCC[C@H]4C(=O)NC(C)(C)C(=O)N[C@H](C(=O)N(C)C)C(C)C)C(C)C)ccc2C)C3)cn1 [Example 22, (S)—N-(1-(((S)-1-(dimethylamino)-3-methyl-1-oxobutan-2-yl)amino)-2-methyl-1-oxopropan-2-yl)-1-((4-methyl-3-(1-methyl-7-((6-methylpyridin-3-yl)amino)-2-oxo-1,4-dihydropyrimido[4,5-d]pyrimidin-3(2H)-yl)benzoyl)-L-valyl)pyrrolidine-2-carboxamide] (X1-VP[Aib]V-NMe2) |  |  | > 600 | > 600 |
| Cc1ccc(Nc2ncc3c(n2)N(C)C(=O)N(c2cc(C(=O)N[C@H](C(=O)N4CCC[C@@H]4C(=O)NC(C)(C)C(=O)N[C@H](C(=O)N(C)C)C(C)C)C(C)C)ccc2C)C3)cn1 [Example 23, (R)—N-(1-(((S)-1-(dimethylamino)-3-methyl-1-oxobutan-2-yl)amino)-2-methyl-1-oxopropan-2-yl)-1-((4-methyl-3-(1-methyl-7-((6-methylpyridin-3-yl)amino)-2-oxo-1,4-dihydropyrimido[4,5-d]pyrimidin-3(2H)-yl)benzoyl)-L-valyl)pyrrolidine-2-carboxamide] (X1-V[dP][Aib]V-NMe2) |  |  | > 600 | > 600 |
| Cc1ccc(Nc2ncc3c(n2)N(C)C(=O)N(c2cc(C(=O)N[C@@H](Cc4ccccc4)C(=O)N4CCC[C@H]4C(=O)NC(C)(C)C(=O)N[C@H](C(=O)N(C)C)C(C)C)ccc2C)C3)cn1 [Example 24, (S)—N-(1-(((S)-1-(dimethylamino)-3-methyl-1-oxobutan-2-yl)amino)-2-methyl-1-oxopropan-2-yl)-1-((4-methyl-3-(1-methyl-7-((6-methylpyridin-3-yl)amino)-2-oxo-1,4-dihydropyrimido[4,5-d]pyrimidin-3(2H)-yl)benzoyl)-L-phenylalanyl)pyrrolidine-2-carboxamide] (X1-FP[Aib]V-NMe2) |  |  | > 600 | 1 to 200 |
| Cc1ccc(Nc2ncc3c(n2)N(C)C(=O)N(c2cc(C(=O)N[C@@H](C)C(=O)N4CCC[C@H]4C(=O)NC(C)(C)C(=O)N[C@H](C(=O)N(C)C)C(C)C)ccc2C)C3)cn1 [Example 25, (S)—N-(1-(((S)-1-(dimethylamino)-3-methyl-1-oxobutan-2-yl)amino)-2-methyl-1-oxopropan-2-yl)-1-((4-methyl-3-(1-methyl-7-((6-methylpyridin-3-yl)amino)-2-oxo-1,4-dihydropyrimido[4,5-d]pyrimidin-3(2H)-yl)benzoyl)-L-alanyl)pyrrolidine-2-carboxamide] (X1-AP[Aib]V-NMe2) | > 600 | 200 to 400 |  |  |
